# According to US10035980B2, “Extracellular matrix derived from stem cells and methods for production” (FLORIDA STATE UNIVERSITY RESEARCH FOUNDATION, INC., priority 2013, dated 2018):
# Columns and labels:
# Assay type in all cases: cell-based, Murine
# ESCs [1] = experiment: Three-germ layer differentiation of ESCs grown on decellularized ECM scaffolds
# Protocol: (§1) To detect differentiation markers, the cells were incubated with mouse or rabbit primary antibody against: Nestin (Millipore), β-tubulin III (Sigma), α-actinin (sarcomeric, Sigma), or FOXA2 (Millipore). After washing, the cells were incubated with the corresponding secondary antibody: ALEXA FLUOR 488 goat anti-Mouse IgG1 (for Nestin and α-actinin) or IgG2b (for β-Tubulin III), or ALEXA FLUOR 488 goat anti-Rabbit IgG (for FOXA2). The localization of RAR-α was also assessed using goat anti-Rabbit RAR-α antibody (Abcam) detected by ALEXA FLUOR 594 donkey anti-Goat IgG.
# (§2) To assess cell proliferation, ESCs of 0.5×10^5 per mL were seeded on the decelluarized ECMs and cultivated for 4 days in expansion media without LIF (FIG. 1). […] Cell numbers were determined at days 0, 2, and 4 using a hemocytometer after trypsin/EDTA dissociation. The specific growth rates were calculated as the slope of the proliferation curve. Cell viability was determined by the incubation with 5 mg/mL 3-(4,5-Dimethylthiazol-2-yl)-2,5-diphenyltetrazolium bromide (MTT, Sigma) solution. Afterwards, the formazan crystals were hydrolyzed with dimethyl sulfoxide (Sigma) and measured at 500 nm using a microplate reader. For the test of RA signaling, soluble RA (1 μM) or BMS 493 (1 μM, Santa Cruz), a pan-RAR antagonist, was supplemented in the media. To assess the differentiation ability after culturing on the decellularized ECMs, ESCs were replated on 0.1% gelatin-coated 12-well plates and cultured for 7 days in differentiation medium without any inducing growth factors. The cells were evaluated for the expression of Nestin (ectoderm), β-tubulin III (ectoderm), α-actinin (mesoderm), and FOXA2 (endoderm).
# For flow cytometry, 1×10^6 cells per sample were fixed with 4% PFA and washed with staining buffer (2% FBS in PBS). The cells were stained with DNA-intercalating dye ethidium monoazide bromide (EMA, Sigma) and permeabilized with 100% cold methanol. The samples were incubated with primary antibodies against Oct-4 (Millipore), Nestin, β-tubulin III, α-actinin, or FOXA2 followed by the corresponding secondary antibody: ALEXA FLUOR 488 goat anti-Mouse IgG1 (for Oct-4, Nestin, and α-actinin) or IgG2b (for β-tubulin III), or ALEXA FLUOR 488 goat anti-Rabbit IgG (for FOXA2). The cells were acquired with BD FACSCANTO II flow cytometer (Becton Dickinson) and analyzed against isotype controls using FlowJo software.
# ESC-derived NPCs [2] = experiment: Neural marker expression of reseeded NPCs by flow cytometry; details: for GFAP expression upon BMS 493 treatment: FIG. 17D
# Protocol: For various ECM scaffolds, 1×10^6 dissociated NPCs or intact NPC aggregates derived from ESCs were reseeded on the ECM scaffolds and cultivated for 3-4 days in DMEM-F12 containing 2% B27. The cells were analyzed for colonization on the scaffolds, proliferation, and viability. To study the effect of retinoid signaling, BMS 493 (1 μM, Santa Cruz), a pan-retinoic acid receptor (RAR) antagonist, was supplemented in the media for some experiments. After 3 days of culture in suspension, the NPC-ECM constructs were replated in 24-well plates coated with Geltrex™, the LDEV-Free Reduced Growth Factor Basement Membrane Matrix (Life Technologies), for another 3 days. The differentiation was assessed by immunocytochemistry for neural markers. […] The samples were then blocked and incubated with mouse or rabbit primary antibody against: Nestin (Sigma) or Musashi-1 (Abcam) for neural progenitors, β-tubulin III (Millipore) for neurons, or GFAP (Millipore) for astrocytes. After washing, the cells were incubated with the corresponding secondary antibody: Alexa Fluor® 488 goat anti-Mouse IgG1 for GFAP and β-tubulin III, or Alexa Fluor® 488 goat anti-Rabbit IgG for Nestin and Musashi-1 (Molecular Probes). The samples were mounted with 4′,6-Diamidino-2-Phenylindole (DAPI) and visualized using a fluorescent microscope. To quantify the levels of neural marker expression, the cells on ECM scaffolds were harvested by trypsinization and analyzed by flow cytometry. Briefly, 1×10^6 cells per sample were fixed with 4% PFA and washed with staining buffer (2% FBS in PBS). […] Alexa Fluor® 488 goat anti-Mouse IgG1 (for GFAP and β-tubulin III) or Alexa Fluor® 488 goat anti-Rabbit IgG (for Nestin and Musashi-1). The cells were acquired with BD FACSCanto™ II flow cytometer (Becton Dickinson) and analyzed against isotype controls using FlowJo software.
# ESC-derived NPCs [3] = experiment: NPC proliferation assays on ECM scaffolds (fold expansion, MTT); details: NPCs on DE-EC and DE-NG scaffolds, BMS 493 1 μM, FIG. 17A
# Protocol: For various ECM scaffolds, 1×10^6 dissociated NPCs or intact NPC aggregates derived from ESCs were reseeded on the ECM scaffolds and cultivated for 3-4 days in DMEM-F12 containing 2% B27. The cells were analyzed for colonization on the scaffolds, proliferation, and viability. To study the effect of retinoid signaling, BMS 493 (1 μM, Santa Cruz), a pan-retinoic acid receptor (RAR) antagonist, was supplemented in the media for some experiments.
# Cell proliferation assays: Cell numbers were determined at days 3 using a hemocytometer after trypsin/EDTA dissociation for fold expansion. Cell proliferation kinetics was also determined by incubating with 5 mg/mL 3-(4,5-Dimethylthiazol-2-yl)-2,5-diphenyltetrazolium bromide (MTT, Sigma) solution. Afterwards, the formazan crystals were hydrolyzed with dimethyl sulfoxide (Sigma) and measured at 500 nm using a microplate reader.
# ESCs [4] = experiment: Oct-4 expression of reseeded ESCs by flow cytometry
# Protocol: as §2
# For flow cytometry, 1×10^6 cells per sample were fixed with 4% PFA and washed with staining buffer (2% FBS in PBS). […] The cells were acquired with BD FACSCANTO II flow cytometer (Becton Dickinson) and analyzed against isotype controls using FlowJo software.
# ESCs [5] = experiment: ESC reseeding and proliferation on decellularized ECMs (specific growth rate)
# Protocol: as §2
# RAR-α = target: T1, RAR-α (Mus musculus, UniProt P11416); experiment: RAR-α localization in ESCs by immunocytochemistry; details: ESCs on DE-RA10 without soluble RA; ESC monolayers exposed to soluble RA, FIG. 8A
# T1 construct: Localization of RAR-α in ESC monolayers with or without RA treatment; endogenous in cells; host or cells: embryonic stem cells (monolayers, or reseeded on DE-RA10 scaffolds)
# T1 sequence (P11416 1-462): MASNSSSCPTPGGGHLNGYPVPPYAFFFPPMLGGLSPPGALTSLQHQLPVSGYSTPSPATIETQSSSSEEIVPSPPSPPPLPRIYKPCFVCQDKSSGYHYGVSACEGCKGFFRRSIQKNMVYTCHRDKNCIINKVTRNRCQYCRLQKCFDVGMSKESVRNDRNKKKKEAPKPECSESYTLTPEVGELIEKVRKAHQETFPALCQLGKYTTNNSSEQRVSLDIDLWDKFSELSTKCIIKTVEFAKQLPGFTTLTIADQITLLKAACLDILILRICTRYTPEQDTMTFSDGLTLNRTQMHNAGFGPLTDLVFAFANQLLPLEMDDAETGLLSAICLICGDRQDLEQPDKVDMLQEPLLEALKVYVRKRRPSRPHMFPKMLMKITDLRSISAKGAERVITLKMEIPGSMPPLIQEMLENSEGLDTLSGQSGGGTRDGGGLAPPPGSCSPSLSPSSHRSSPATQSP
# Protocol: as §1
# as §2, with “For the test of RA signaling, soluble RA (1 μM) or BMS 493 (1 μM, Santa Cruz), a pan-RAR antagonist, was supplemented in the media. To assess the differentiation ability after culturing on the decellularized ECMs, ESCs were replated on 0.1% gelatin-coated 12-well plates and cultured for 7 days in differentiation medium without any inducing growth factors.” left out
# [6] = BMS 493 treated vs untreated, ESCs on DE-RA10, FIG. 8E
# [7] = FIG. 8E: ESCs on DE-RA10 with or without BMS 493 (1 μM)
# [8] = BMS 493 (1 μM) added in the DE-RA10 culture, FIG. 8C
# [9] = FIG. 8D: ESCs on DE-RA10 vs ESCs treated by soluble RA
# [10] = FIG. 8B: cells in DE-RA10 vs cells in DE-SE10 treated with soluble RA (1 μM)
smiles,measurement,setting,value
CC1(C)CC=C(C#Cc2ccccc2)c2cc(/C=C/c3ccc(C(=O)O)cc3)ccc21 [BMS 493],Nestin expression,ESCs [1]; [6],increased
same,β-tubulin III expression,ESCs [1]; [6],similar
same,expression of FOXA2,ESCs [1]; [7],24%
same,expression of α-actinin,ESCs [1]; [7],3%
same,GFAP expression upon BMS 493 treatment,ESC-derived NPCs [2]; DE-EC condition,increased GFAP expression
same,neural marker expression upon BMS 493,"ESC-derived NPCs [2]; NPCs, DE-AC group",no changes in neural marker expression
same,Nestin expression upon BMS 493 treatment,"ESC-derived NPCs [2]; NPCs, DE-EC and DE-NC conditions, FIG. 17B",increased
same,β-Tubulin III expression upon BMS 493 treatment,"ESC-derived NPCs [2]; cells from DE-NC scaffold, FIG. 17C",significant decrease
same,GFAP expression upon BMS 493 treatment,ESC-derived NPCs [2]; cells from DE-NC scaffold,significant decrease
same,cell proliferation after BMS 493 treatment,ESC-derived NPCs [3],reduced the cell proliferation
same,Oct-4 expression,ESCs [4]; [8],not Oct-4 expression
same,ESC proliferation,ESCs [5]; [8],reduced ESC proliferation
"CC1=C(/C=C/C(C)=C/C=C/C(C)=C/C(=O)O)C(C)(C)CCC1 [soluble RA, all-trans retinoic acid]",Nestin expression,ESCs [1]; [9],32%
same,β-tubulin III expression,ESCs [1]; [9],25%
same,Oct-4 expression,ESCs [4]; [10],10.1%
same,specific growth rate,ESCs [5]; [10],-0.013 h⁻¹
same,localization of RAR-α,RAR-α,translocation of RAR-α from cytoplasm to cell nucleus was confirmed
